In one series the test system is CHO-KI cells. The experiment in a line: Ultrasound mediated transfection of CHO-KI cells with GFP chromosomes and Saint-2. It is filed as cell-based. The method, then: Vesicles were prepared at a lipid concentration of 700 nmol/ml lipid (cationic lipid/DOPE 1:1) as follows. In a glass tube (10 ml) 350 nmol cationic lipid (SAINT-2) was mixed with 350 nmol dioleoylphosphatidylethanolamine (DOPE), both solubilized in an organic solvent (Chloroform, Methanol or Chloroform/Methanol 1:1, v/v). dioleoylphosphatidylethanolamine (DOPE; Avanti Polar Lipids, Alabaster, Ala.) forms inverse hexagonal phases in a membrane and weakens the membrane. Other effectors that may be used are cis-unsaturated phosphatidylethanolamines, cis-unsaturated fatty acids, and cholesterol.
The solvent was evaporated under a stream of nitrogen (15 min/250 μl solvent at room temperature). The remaining solvent was removed totally by drying the lipid for 15 min in an desiccator under high vacuum from a vacuum pump. To the dried mixture was added 1 ml ultrapure water. This was vortexed vigorously for about 5 min. The resulting solution was sonicated in an ultrasonication bath (Laboratory Supplies Inc. N.Y.) until a clear solution was obtained. The resulting suspension contained a population of unilamellar vesicles with a size distribution between 50 to 100 nm.
CHO-KI cells were grown at 37° C., 5% CO2, in CHO—S-SFM 2 Medium, (Gibco BRL, Paisley, UK). Between 2×10^5 and 5×10^5 cells were plated onto sterile glass slides in a 12 well plate 24 h before usage.
Transfection of the cells was performed as follows. The medium was removed from the cells, and the cells were washed twice with HBSS (Hanks balanced salt solution without Phenol Red (Gibco BRL, UK)) at 37° C. Then 500 μl HBSS at 37° C. was added per well, followed by 10 μl of the freshly prepared vesicle solution (prepared in Example 2) to yield a final concentration of 23.3 nmol/ml.
(§1) Alternatively, the medium was removed from the cells, and the cells were washed twice with HBSS. 500 μl HBSS/lipid solution at 37° C. was added to each well. The HBSS/lipid solution was prepared by adding 1 μl ethanolic lipid solution (prepared as described above) to 500 μl HBSS under vigorous vortexing. The plates were then sealed with parafilm tape and shaken gently at room temperature for 30 min. After incubation, ultrasound was applied at an output energy of 0.5 Watt/cm^2 for 60 sec through the bottom of the plate to the cells. The ultrasound was mediated by an ultrasound gel (Aquasonic 100, Parker, N.J.) between transducer and plate. The ultrasound was applied with an ImaRx Sonoporator 100. Immediately after applying ultrasound one GFP chromosome per seeded cell (2×10^5-5×10^5) (prepared in Example 1) was added. The plate was then sealed again and shaken gently for 1 h at room temperature. […]

The test system of another series is Hep-G2 cells. The experiment in a line: Ultrasound mediated transfection of Hep-G2 cells with GFP chromosomes and Saint-2. It is filed as cell-based. As for the experimental part:
as §1, with “temperature. After the incubation 1 ml medium (CHO—S-SFM 2 with 10% Fetal Calf Serum, 10000 μg/ml Penicillin and 10000 μg/ml Streptomycin Gibco BRL, Paisley, UK) was added to each well and the cells were incubated for 24 h at 37° C. The cells were then washed with medium, 1 ml medium was added, and the cells were incubated at 37° for another 24 h. Detection of expressed genes was then assayed by microscopy or detection of the transferred chromosome by FISH analysis.” for “temperature.”

The test system of another series is A9 cells. Briefly: Ultrasound mediated transfection of A9 cells with GFP chromosomes and Saint-2. It is filed as cell-based, murine. As for the experimental part:
as §1, with “temperature. After the incubation 1 ml medium (CHO—S-SFM 2 with 10% Fetal Calf Serum, 10000 μg/ml Penicillin and 10000 μg/ml Streptomycin Gibco BRL, Paisley, UK) was added to each well and the cells were incubated for 24 h at 37° C. The cells were then washed with medium, 1 ml medium was added, and the cells were incubated at 37° for another 24 h. Detection of expressed genes was then assayed by microscopy or detection of the transferred chromosome by FISH analysis.” for “temperature.”

`CCCCCCCCC=CCCCCCCCCC(CCCCCCCCC=CCCCCCCCC)c1cc[n+](C)cc1.[Cl-]` (centres unmarked) [Saint-2, 1-methyl-4-(1-octadec-9-enyl-nonadec-10-enylenyl)pyridinium chloride]: the “cells remained on the glass slide after transfection” value was 30% in the series with CHO-KI cells (Saint-2/DOPE, ultrasound 0.5 Watt/cm^2 60 sec, visual inspection) and 30% in the series on Hep-G2 cells (Hep-G2, Saint-2/DOPE, ultrasound 0.5 Watt/cm^2 60 sec). Moreover, the “GFP positive cells as % of original population” value in the series with CHO-KI cells (after 48 hours) was determined as 3%. In addition, the “remaining cells positive for green fluorescent protein expression” value turned out to be 10% with CHO-KI cells (after 48 hours, of the cells remaining on the slide); 80% with Hep-G2 cells (Hep-G2, of the cells remaining on the slide); 50% with A9 cells (A9, of the cells remaining on the glass). Moreover, in the series on CHO-KI cells (after culturing for two weeks), the “cells containing an intact artificial chromosome (FISH)” value was found to be 1.4%. In the series on A9 cells (A9, Saint-2/DOPE, ultrasound 0.5 Watt/cm^2 60 sec), the “cells remained on the glass after transfection” value was 30%.

Source of the values: patent US7294511B2, “Methods for delivering nucleic acid molecules into cells and assessment thereof” (Chromos Molecular Systems, Inc., priority 2001, dated 2007).
